Experimental data from paper PMC12410356 (International Journal for Parasitology: Drugs and Drug …, 2025).

Assays:
[1] = system: E. multilocularis metacestode vesicles; test: Phosphoglucose isomerase (PGI) release assay (damage-marker release) on metacestode vesicles; assay type: cell-based, Echinococcus multilocularis; settings: 10 μM; for PGI d5 (relative PGI release): 5 days; for PGI d12 (relative PGI release): 12 days
[2] = system: E. multilocularis metacestode vesicles; test: Metacestode vesicle viability assay (ATP, CellTiter-Glo); assay type: cell-based, Echinococcus multilocularis
Procedure: Viability was assessed after 12 days using the same metacestode vesicles as for the PGI release assay. Triton X-100 was added to each well to a final concentration of 0.1 %. Subsequently the metacestode vesicles were broken mechanically and 50 μL of the supernatant was mixed with 50 μL of CellTiter-Glo® buffer (Promega, Dübendorf, Switzerland). Measurements were performed on a HIDEX Sense microplate reader.

[3] = overview screen, singlets, relative to 0.1 % Triton X-100, DMSO subtracted
[4] = overview screen, 10 μM, singlets, 12 days, relative to DMSO control
[5] = confirmation screen, triplicates, mean
[6] = confirmation screen, 10 μM, triplicates, mean, 12 days

Structure (SMILES)	PGI d5 (relative PGI release) [1, 3] [%]	PGI d12 (relative PGI release) [1, 3] [%]	Viability d12 (relative viability) [2, 4] [%]	Viability d12 (relative viability) ([2]; 10 µM) [%]	PGI d5 (relative PGI release) [1, 5] [%]	PGI d12 (relative PGI release) [1, 5] [%]	Viability d12 (relative viability) [2, 6] [%]
CC1(C)CC(NC(=O)C(=O)Nc2ccc(Cl)cc2)CC(C)(C)N1 [MMV1580501]	0.3852	0.4399	102.317	–	–	–	–
Cc1onc(-c2ccccc2)c1-c1ccc(S(N)(=O)=O)cc1 [MMV002260]	0.1005	-4.614	84.2251	–	–	–	–
CC(=N)N1CC[C@H](SC2=C(C(=O)O)N3C(=O)[C@@H]([C@@H](C)O)[C@H]3C2)C1 [MMV1582382]	-2.073	-11.6677	19.8723	–	–	–	–
O=C(/C=C\n1cnc(-c2cc(C(F)(F)F)cc(C(F)(F)F)c2)n1)NNc1ccccn1 [MMV1580493]	1.061	0.9356	159.076	–	–	–	–
OCCCCn1cnc2c(O)nc(NCc3ccc(Cl)c(Cl)c3)nc21 [MMV1593542]	-1.805	-12.5973	68.6346	–	–	–	–
C=C[C@]1(C)C[C@@H](OC(=O)CS[C@@H]2C[C@H]3CC[C@@H](C2)N3C)[C@]2(C)[C@H](C)CC[C@]3(CCC(=O)[C@H]32)[C@@H](C)[C@@H]1O [MMV1633674]	-1.377	19.1844	–	92.0635	–	–	–
CSC[C@H]1CN(Cc2c[nH]c3c(N)ncnc23)C[C@@H]1O [MMV1578565]	-1.805	-12.574	59.0324	–	–	–	–
O=C(N[C@H](CCS)C(=O)N[C@H](Cc1ccccc1)C(=O)O)c1cc2ccccc2[nH]1 [MMV1581557]	-0.9852	-10.8141	26.3851	–	–	–	–
Nc1nc2c(ncn2[C@@H]2O[C@H](CO)[C@@H](O)[C@H]2F)c(=O)[nH]1 [MMV1633677]	-0.3308	49.9588	216.057	–	–	–	–
CC#C[C@]1(O)CC[C@H]2[C@@H]3CCC4=CC(=O)CCC4=C3[C@@H](c3ccc(N(C)C)cc3)C[C@@]21C [MMV003297]	-0.9731	-0.6398	–	92.6641	–	–	–
Fc1ccc2c(/C=C/c3nnn[nH]3)c[nH]c2c1 [MMV1578563]	-0.5513	-11.8723	20.2898	–	–	–	–
O=S(=O)(Nc1ccc(O)cc1)c1cccc2cccnc12 [MMV251679]	0.1251	-17.8593	83.9227	–	–	–	–
O=C(Cc1ccccc1F)Nc1nc2ccccc2[nH]1 [MMV1578576]	4.048	84.4551	28.1158	–	0.17	0.0454	92.12
CSc1ccc2c(c1)C(N1CCN(C)CC1)Cc1ccccc1S2 (stereo not drawn) [MMV002505]	0.4968	-0.02837	82.0463	–	–	–	–
Cc1cc(-c2ccccc2)c(C(=O)C(=O)Nc2ccc(N3CCN(c4ncc(F)cn4)CC3)cc2)n1C [MMV1782354]	1.821	-11.1929	36.0707	–	–	–	–
COc1ccc(-n2cnc3cc(NCc4ccco4)ccc32)cc1 [MMV617332]	0.2921	-0.1496	117.278	–	–	–	–
O=S(=O)(Nc1ccc(-n2cccc2)cc1)c1ccc(Cl)c(Cl)c1 [MMV1505642]	-0.09064	-9.692	76.9008	–	–	–	–
Cc1cc(NS(=O)(=O)c2ccc(-c3ccc(F)cc3F)cc2)no1 [MMV1782217]	-2.099	-26.6121	58.3644	–	–	–	–
CC(C)(C)c1cccc(-c2nc3cc(C(=N)N)ccc3[nH]2)c1O [MMV1581548]	-1.312	-24.7037	76.2328	–	–	–	–
Nc1cc(-c2nc3ccccc3[nH]2)n[nH]c1=O [MMV975972]	0.8096	-4.832	175.408	–	–	–	–
O=C(O)COc1cccc2c1CC[C@](O)(COC(=O)N(c1ccccc1)c1ccccc1)C2 [MMV1782352]	-0.08001	-0.2818	68.1339	–	–	–	–
CCOC(=O)N1CCN(c2ccc(Cl)cc2)CC1 [MMV1578898]	-0.03171	1.172	47.7603	–	–	–	–
COc1ccc2nc(-c3ccccc3)cc(O)c2c1 [MMV011565]	5.903	49.0323	19.5448	–	0.13	-0.59	78.39
CCCCCc1ccc(C(=O)NCCn2cc(CCCCCc3c[nH]c(N)n3)nn2)cc1.Cl [MMV1580847]	2.795	5.023	106.136	–	–	–	–
O=C(O)C[C@H]1CC[C@H](c2ccc(-c3ccc(Nc4ccc(C(F)(F)F)nc4)cn3)cc2)CC1 [MMV1580498]	0.9992	1.035	139.746	–	–	–	–
COc1ccc(NC(=O)CC2Sc3ncnn3C2=O)cc1 (stereo not drawn) [MMV1483032]	0.1451	-11.504	68.4676	–	–	–	–
CNc1nc(=O)[nH]cc1F [MMV1782388]	-3.006	-25.8676	224.858	–	–	–	–
